According to patent US20230158159A1, “CHIMERIC DEGRADERS OF CYCLIN-DEPENDENT KINASE 9 AND USES THEREOF” (Massachusetts Institute of Technology, priority 2020, published 2023):

Assays:
[1] = target: T1, CDK9 (Homo sapiens, UniProt P50750); experiment: CDK9 degradation assay, Western blot, MOLT4 cells; type: cell-based; set-up: endogenous in cells; host or cells: MOLT4 (MOLT-4); settings: for CDK9 protein levels: MOLT-4 leukemia cells, 8 h treatment time; for reduction of CDK9 protein levels: 1 μM, compared to DMSO and parent compound KI-ARv3; for concentration at which the concentration dependent decrease of CDK9 levels starts: dose range 10 nM-10 μM
T1 sequence (P50750 whole entry): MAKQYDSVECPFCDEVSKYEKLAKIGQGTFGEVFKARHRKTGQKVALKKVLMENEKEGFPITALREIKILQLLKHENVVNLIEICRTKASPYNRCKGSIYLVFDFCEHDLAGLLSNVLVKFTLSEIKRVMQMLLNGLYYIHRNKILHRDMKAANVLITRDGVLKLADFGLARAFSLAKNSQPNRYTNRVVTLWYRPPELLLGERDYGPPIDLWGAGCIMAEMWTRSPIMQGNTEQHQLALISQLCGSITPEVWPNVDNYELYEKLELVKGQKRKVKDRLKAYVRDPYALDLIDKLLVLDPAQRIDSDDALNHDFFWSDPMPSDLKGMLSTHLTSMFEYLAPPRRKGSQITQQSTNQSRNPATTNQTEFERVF
T1 sequence (O60563 whole entry partner): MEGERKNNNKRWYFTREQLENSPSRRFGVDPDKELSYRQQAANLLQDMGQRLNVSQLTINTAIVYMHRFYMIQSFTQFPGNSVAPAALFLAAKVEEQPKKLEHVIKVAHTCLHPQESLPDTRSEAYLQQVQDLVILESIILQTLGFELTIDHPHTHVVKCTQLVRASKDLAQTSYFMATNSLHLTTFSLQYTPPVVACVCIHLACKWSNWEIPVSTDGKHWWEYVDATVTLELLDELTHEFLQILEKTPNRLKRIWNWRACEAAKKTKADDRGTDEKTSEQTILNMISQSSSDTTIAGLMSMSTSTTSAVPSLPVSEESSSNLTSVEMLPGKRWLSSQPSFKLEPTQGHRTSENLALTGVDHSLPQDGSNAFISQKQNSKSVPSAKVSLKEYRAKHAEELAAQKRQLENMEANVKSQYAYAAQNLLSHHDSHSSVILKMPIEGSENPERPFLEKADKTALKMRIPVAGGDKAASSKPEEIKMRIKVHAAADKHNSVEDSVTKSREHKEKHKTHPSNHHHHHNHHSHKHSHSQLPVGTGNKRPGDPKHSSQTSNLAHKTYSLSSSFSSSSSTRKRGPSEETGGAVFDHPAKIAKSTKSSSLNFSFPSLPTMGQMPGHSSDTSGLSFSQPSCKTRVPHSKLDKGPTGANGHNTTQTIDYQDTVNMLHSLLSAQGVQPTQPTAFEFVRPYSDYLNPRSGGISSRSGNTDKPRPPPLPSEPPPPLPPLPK
Experimental: Efficiencies were measured by monitoring their impact on CDK9 itself as well as downstream targets of CDK9 phosphorylation such as AR and Pol II.

[2] = test system: Cyclin T; experiment: Cyclin T protein levels, Western blot, MOLT-4 cells; type: cell-based, human; settings: MOLT-4 leukemia cells, 10 μM, 8 h treatment time
Experimental: Compounds 4 and 5 (KI-ARv-03-D09 and -D10) incorporate such bi-aryl extensions and were therefore tested for their ability to degrade CDK9 and/or its associated cyclin T. In addition, the corresponding molecules KB-0742-D01 and -D02 which comprise the […] warhead and bi-aryl extensions were evaluated.

[3] = target: T1, CDK9; experiment: CDK9 degradation assay, Western blot, Rh-30 cells; type: cell-based; set-up: endogenous in cells; host or cells: 22Rv1; settings: for changes in CDK9 levels: Rh-30 cells, 10 nM, 100 nM, 500 nM, 1 μM, 10 μM, 6 h or 8 h
Experimental: (§1) FIGS. 8A-C show evaluation of KI-ARv3-D07 and -08 in MV-4-11 (FIG. 8A) and Rh-30 (FIG. 8C) cells as well as side by side comparison of both cell lines (FIG. 8B). […] FIG. 8B treatment time is 8 hr.
FIGS. 9A-D show evaluation of KI-ARv3-D11 and -D18 in 22Rv1 (FIG. 9A, 16 h treatment time), MOLT-4 (FIG. 9B, 7 h treatment time), and Rh-30 (FIGS. 9C and 9D, 16 h treatment time) cell lines.
(§2) The effect of KI-ARv3-D07 and -08 on impacting CDK9 levels in the additional cell lineages MV-4-11 (leukemia cell line) and the Rh-30 (rhabdomyosarcoma cell line) at 6 h and 8 h treatment times (FIG. 8) was also evaluated. […] In Rh-30 no changes in CDK9 levels were detected at any compound concentration (10 nM, 100 nM, 500 nM, 1 μM, 10 μM) at either 6 h or 8 h treatment time (FIGS. 8B and 8C).

[4] = target: T1, CDK9; experiment: CDK9 degradation assay, Western blot, MV-4-11 cells; type: cell-based; set-up: endogenous in cells
Experimental: as §1, §2

[5] = target: T1, CDK9; experiment: CDK9 degradation assay, Western blot, 22Rv1 cells; type: cell-based; set-up: endogenous in cells; host or cells: 22Rv1; settings: for reduction of CDK9 levels / degradation of CDK9: 10 nM-10 μM
Experimental: (§3) Compounds were evaluated in ARv7 positive 22Rv1 cells in order to assess their potential to degrade CDK9 and its associated downstream phosphorylation targets Pol II as well as AR and related splice variants (FIGS. 6 and 7).

[6] = test system: Pol II; experiment: Pol II protein levels, Western blot, 22Rv1 cells; type: cell-based; settings: FIG. 7 (24 hours, 10 nM-10 μM)
Experimental: as §3

[7] = test system: AR; experiment: AR and AR splice variant protein levels, Western blot, 22Rv1 cells; type: cell-based; settings: FIG. 7 (24 hours, 10 nM-10 μM)
Experimental: as §3

[8] = MOLT4 cells, 1 μM and 5 μM, 6 hours, compared to DMSO
[9] = MOLT4 cells, low dose 1 μM, 24 hours

CDK9 protein levels ([1]; 10 μM)	SMILES	Cyclin T protein levels [2]	changes in CDK9 levels [3]	CDK9 degradation [1, 8]	reduction of CDK9 protein levels ([1]; MOLT4 cells, 6 hours)	concentration at which the concentration dependent decrease of CDK9 levels starts ([1]; MOLT4 cells, 6 hours) [nM]	CDK9 degradation [1, 9]	reduction of CDK9 levels ([5]; 6 hours)	degradation of CDK9 ([5]; 24 hours)	also measured
reduction in protein levels	CCC(CC)c1cc(N[C@H]2CC[C@H](NC(=O)c3ccc(-c4ccc(CN)cc4)cc3)C2)n2nccc2n1 [KB-0742-D02, 4′-(aminomethyl)-N-((1S,3S)-3-((5-(pentan-3-yl)pyrazolo[1,5-a]pyrimidin-7-yl)amino)cyclopentyl)-[1,1′-biphenyl]-4-carboxamide]	reduction in protein levels	–	–	–	–	–	–	–	–
–	CCCc1cc(N[C@@H]2CC[C@@H](NC(=O)CCCCCCCCCNc3cccc4c3C(=O)N(C3CCC(=O)NC3=O)C4=O)C2)n2nccc2n1 (stereo partly drawn) [KI-ARv3-D07, 10-((2-(2,6-Dioxopiperidin-3-yl)-1,3-dioxoisoindolin-4-yl)amino)-N-((1R,3R)-3-((5-propylpyrazolo[1,5-a]pyrimidin-7-yl)amino)cyclopentyl)decanamide]	–	no changes	CDK9 degradation was observed	approximately 80%	100	reduced	no significant reduction	not able to facilitate degradation of CDK9	degradation of CDK9 ([1]; MOLT4 cells, 24 hours, 10 μM): not demonstrated; hook effect on CDK9 degradation ([1]; MOLT4 cells, high dose 5 μM, 24 hours): hook effect; changes in CDK9 levels ([4]; 6 h and 8 h, FIGS. 8A and 8B): did not lead to significant changes
–	CCCc1cc(N[C@@H]2CC[C@@H](NC(=O)c3ccc(-c4ccc(CNc5cccc6c5C(=O)N(C5CCC(=O)NC5=O)C6=O)cc4)cc3)C2)n2nccc2n1 (stereo partly drawn) [KI-ARv3-D08, 4′-(((2-(2,6-dioxopiperidin-3-yl)-1,3-dioxoisoindolin-4-yl)amino)methyl)-N-((1R,3R)-3-((5-propylpyrazolo[1,5-a]pyrimidin-7-yl)amino)cyclopentyl)-[1,1′-biphenyl]-4-carboxamide]	–	no changes	CDK9 degradation was observed	approximately 80%	100	reduced	subtle reduction	significant CDK9 degradation	global Pol II protein levels [6]: no observed effect; global AR protein levels [7]: no observed effect; CDK9 degradation ([1]; MOLT4 cells, 24 hours, across the whole range 10 nM-10 μM): approx. 80%; concentration at which reduction of CDK9 levels starts ([4]; 6 h and 8 h treatment time): 350 nM; reduction of CDK9 levels ([4]; 6 h and 8 h treatment time): approximately 60%; rescue experiments using proteasome inhibitor MG132 ([4]; FIG. 8A): reversible and proteasome dependent; concentration at which reduction in CDK9 protein levels starts ([5]; 6 hours): 500 nM; concentration at which significant CDK9 degradation starts ([5]; 24 hours): 100 nM
reduction in protein levels	CCCc1cc(NC2CCC(NC(=O)c3ccc(-c4ccc(CN)cc4)cc3)C2)n2nccc2n1 (stereo not drawn) [KI-ARv3-D10, 4′-(aminomethyl)-N-(3-((5-propylpyrazolo[1,5-a]pyrimidin-7-yl)amino)cyclopentyl)-[1,1′-biphenyl]-4-carboxamide]	reduction in protein levels	–	–	–	–	–	–	–	–
–	CCCc1cc(N[C@@H]2CC[C@@H](NC(=O)c3ccc(-c4ccc(CN[C@H](C(=O)N5C[C@H](O)C[C@H]5C(=O)NCc5ccc(-c6scnc6C)cc5)C(C)(C)C)cc4)cc3)C2)n2nccc2n1 [KI-ARv3-D18, (2S,4R)-1-((S)-3,3-dimethyl-2-(((4′-(((1R,3R)-3-((5-propylpyrazolo[1,5-a]pyrimidin-7-yl)amino)cyclopentyl)carbamoyl)-[1,1′-biphenyl]-4-yl)methyl)amino)butanoyl)-4-hydroxy-N-(4-(4-methylthiazol-5-yl)benzyl)pyrrolidine-2-carboxamide]	–	–	–	–	–	–	–	–	reduction of CDK9 levels ([3]; 25 nM, FIG. 9D (Rh-30, 16 h treatment time)): approximately 80%
